Earlier results as cited in patent US6306425A, “Injectable naltrexone microsphere compositions and their use in reducing consumption of heroin and alcohol” (Southern Research Institute, priority 2000, dated 2001).

Structure (SMILES): O=C1CC[C@@]2(O)[C@H]3Cc4ccc(O)c5c4[C@@]2(CCN3CC2CC2)[C@H]1O5 [naltrexone]
- Safety (administered levels in excess of those of the subject compositions): found to be safe
- Hepatotoxicity (high dosages): some reports of hepatotoxicity
- Population with adverse reactions (oral naltrexone): about 10%
- Control of amount of alcohol consumed and number of binges (alcoholics): serves to enhance the control of the alcoholic in the amount of alcohol consumed and the number of binges
